Data on 26 molecules can be found in ChEMBL document CHEMBL3400008, “Potent and selective Bruton's tyrosine kinase inhibitors: discovery of GDC-0834” (Bioorg Med Chem Lett, 2015).

≈ marks a conversion by molar mass, not a printed value.

Data set [1] concerns the target Tyrosine-protein kinase BTK (Mus musculus, UniProt P35991).
Data set [2] has as its target T1, Tyrosine-protein kinase BTK (Homo sapiens, UniProt Q06187).
The target in data set [3] is T1, Tyrosine-protein kinase BTK. Put plainly: Inhibition of BTK (unknown origin) after 1 hr by FRET assay.
Data set [4] is described as follows: Clearance in rat. In kind it is ADME, organism-based. Conditions: in vivo.
Data set [5] can be described thus: Oral bioavailability in rat compound administered as solution in 20% (v/v) cremophor EL and 10% (v/v) ethanol in water. It counts as ADME, organism-based. Particulars: in vivo.
A short description of data set [6]: Oral bioavailability in dog compound administered as as suspension in crystalline freebase in 0.5% (w/v) methylcellulose and 0.2% (w/v) polysorbate 80 in water. It counts as ADME, organism-based, Canis lupus familiaris. Conditions: in vivo.
A short description of data set [7]: Clearance in mouse. Particulars: in vivo. In kind it is ADME, organism-based.
The nature of data set [8]: Clearance in cynomolgus monkey. In kind it is ADME, organism-based, Macaca fascicularis. Conditions: in vivo.
The nature of data set [9]: Oral bioavailability in cynomolgus monkey. It counts as ADME, organism-based, Macaca fascicularis. Particulars: in vivo.
Data set [10] has as its system Salmonella typhimurium. Put plainly: Toxicity in Salmonella typhimurium TA100 in presence of S9 fraction. Particulars: salmonella enterica subsp. enterica serovar typhimurium. It counts as organism-based.
Data set [11] is described as follows: Solubility of the compound in fasted-state simulated intestinal fluid at pH 6.8. In kind it is ADME.
Data set [12] is described as follows: Oral bioavailability in dog compound administered as solution in 60% polyethylene glycol 400 in water. Conditions: in vivo. It counts as ADME, organism-based, Canis lupus familiaris.
Data set [13] has as its system Homo sapiens. Put plainly: Drug metabolism in healthy human plasma assessed as formation of M1 metabolite at 35 to 105 mg, po. In kind it is ADME, organism-based. Particulars: in vivo.
Data set [14] can be described thus: Oral bioavailability in rat compound administered as suspension in crystalline freebase in 0.5% (w/v) methylcellulose and 0.2% (w/v) polysorbate 80 in water. It counts as ADME, organism-based. Particulars: in vivo.
A short description of data set [15]: Oral bioavailability in mouse. In kind it is ADME, organism-based. Conditions: in vivo.
The subject of data set [16] is Salmonella typhimurium. Put plainly: Toxicity in Salmonella typhimurium TA98 in presence of S9 fraction. It counts as organism-based. Conditions: salmonella enterica subsp. enterica serovar typhimurium.
Data set [17] concerns Salmonella typhimurium. Put plainly: Toxicity in Salmonella typhimurium TA98 in absence of S9 fraction. In kind it is organism-based. Particulars: salmonella enterica subsp. enterica serovar typhimurium.
Another data set deals with hERG (KCNH2) (Homo sapiens, UniProt Q12809). Put plainly: Inhibition of human ERG at 10 uM.
hERG (KCNH2), sequence (Q12809 whole entry): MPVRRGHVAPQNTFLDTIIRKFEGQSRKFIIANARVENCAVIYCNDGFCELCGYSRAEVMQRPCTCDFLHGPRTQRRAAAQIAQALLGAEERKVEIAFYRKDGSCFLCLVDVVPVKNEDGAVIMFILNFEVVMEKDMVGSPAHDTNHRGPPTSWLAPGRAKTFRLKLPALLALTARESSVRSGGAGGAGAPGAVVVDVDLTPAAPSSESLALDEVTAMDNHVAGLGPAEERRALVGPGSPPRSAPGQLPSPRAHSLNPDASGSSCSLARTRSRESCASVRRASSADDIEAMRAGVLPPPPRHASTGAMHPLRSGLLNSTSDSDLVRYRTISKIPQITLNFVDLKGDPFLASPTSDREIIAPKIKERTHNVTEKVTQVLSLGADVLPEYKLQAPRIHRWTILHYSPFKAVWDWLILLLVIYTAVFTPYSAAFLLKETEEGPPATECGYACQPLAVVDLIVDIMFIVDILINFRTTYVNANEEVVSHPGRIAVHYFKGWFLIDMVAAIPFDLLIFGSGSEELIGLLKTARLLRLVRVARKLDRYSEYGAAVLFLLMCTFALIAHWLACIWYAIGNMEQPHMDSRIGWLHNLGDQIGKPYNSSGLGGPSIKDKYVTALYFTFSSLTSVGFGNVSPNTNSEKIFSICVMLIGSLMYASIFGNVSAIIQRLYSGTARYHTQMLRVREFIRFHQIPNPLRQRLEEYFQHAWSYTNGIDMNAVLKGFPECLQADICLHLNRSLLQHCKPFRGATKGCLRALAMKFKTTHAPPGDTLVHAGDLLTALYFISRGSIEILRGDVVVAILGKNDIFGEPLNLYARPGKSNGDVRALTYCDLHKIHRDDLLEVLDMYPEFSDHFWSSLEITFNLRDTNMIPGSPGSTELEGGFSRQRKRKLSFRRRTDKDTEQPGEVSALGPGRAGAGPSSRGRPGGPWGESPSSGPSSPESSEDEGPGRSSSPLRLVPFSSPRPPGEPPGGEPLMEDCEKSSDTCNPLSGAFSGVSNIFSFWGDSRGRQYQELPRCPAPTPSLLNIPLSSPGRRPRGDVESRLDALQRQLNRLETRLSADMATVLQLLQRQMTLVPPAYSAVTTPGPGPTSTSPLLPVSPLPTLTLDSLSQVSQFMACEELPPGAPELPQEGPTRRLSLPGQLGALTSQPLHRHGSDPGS
For data set [18], the system named is Salmonella typhimurium. Put plainly: Toxicity in Salmonella typhimurium TA100 in absence of S9 fraction. In kind it is organism-based. Conditions: salmonella enterica subsp. enterica serovar typhimurium.
The nature of data set [19]: Clearance in dog. It counts as ADME, organism-based, Canis lupus familiaris. Particulars: in vivo.
For data set [20], the system named is Homo sapiens. Put plainly: Drug metabolism in healthy human plasma treated with GDC-0834 at 35 to 105 mg, po. Particulars: in vivo. It counts as ADME, organism-based.

T1 sequence (Q06187 whole entry): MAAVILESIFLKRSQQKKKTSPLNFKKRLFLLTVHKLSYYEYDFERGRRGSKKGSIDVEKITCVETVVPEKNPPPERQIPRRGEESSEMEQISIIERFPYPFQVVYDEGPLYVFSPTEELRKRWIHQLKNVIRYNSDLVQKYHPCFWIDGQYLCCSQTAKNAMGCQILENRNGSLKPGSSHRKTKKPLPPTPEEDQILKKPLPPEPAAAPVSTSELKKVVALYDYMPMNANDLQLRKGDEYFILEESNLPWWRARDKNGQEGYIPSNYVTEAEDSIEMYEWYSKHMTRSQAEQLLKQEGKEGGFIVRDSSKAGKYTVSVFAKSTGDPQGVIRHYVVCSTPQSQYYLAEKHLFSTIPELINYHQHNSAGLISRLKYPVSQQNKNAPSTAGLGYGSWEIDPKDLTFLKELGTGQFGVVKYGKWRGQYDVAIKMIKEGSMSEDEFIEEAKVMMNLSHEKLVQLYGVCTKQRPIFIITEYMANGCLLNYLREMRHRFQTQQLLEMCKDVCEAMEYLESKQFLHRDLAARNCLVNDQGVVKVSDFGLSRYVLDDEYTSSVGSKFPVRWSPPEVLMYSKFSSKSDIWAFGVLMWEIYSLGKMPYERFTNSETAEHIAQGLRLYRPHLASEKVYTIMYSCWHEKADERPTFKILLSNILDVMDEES
Tyrosine-protein kinase BTK (Mus musculus, UniProt P35991), sequence (P35991 whole entry): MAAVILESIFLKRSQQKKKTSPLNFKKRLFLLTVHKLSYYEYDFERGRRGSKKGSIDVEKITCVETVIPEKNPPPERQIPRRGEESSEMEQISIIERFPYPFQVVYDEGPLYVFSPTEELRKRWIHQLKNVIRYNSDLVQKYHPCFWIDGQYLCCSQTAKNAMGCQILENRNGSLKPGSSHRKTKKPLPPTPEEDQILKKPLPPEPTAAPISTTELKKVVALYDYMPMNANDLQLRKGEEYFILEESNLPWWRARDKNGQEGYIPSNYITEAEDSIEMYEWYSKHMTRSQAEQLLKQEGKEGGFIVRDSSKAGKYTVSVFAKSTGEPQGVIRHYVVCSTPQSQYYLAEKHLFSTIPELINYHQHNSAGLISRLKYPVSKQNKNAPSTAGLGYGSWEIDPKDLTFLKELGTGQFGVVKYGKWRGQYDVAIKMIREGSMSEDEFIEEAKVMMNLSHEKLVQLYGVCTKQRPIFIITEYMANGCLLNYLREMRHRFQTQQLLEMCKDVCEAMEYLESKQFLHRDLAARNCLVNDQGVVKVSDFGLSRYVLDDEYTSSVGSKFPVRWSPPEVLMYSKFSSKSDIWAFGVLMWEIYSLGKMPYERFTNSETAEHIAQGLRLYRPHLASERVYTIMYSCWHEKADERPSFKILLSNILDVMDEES

In [1], `Cc1c(NC(=O)c2ccc(C(C)(C)C)s2)cccc1-c1cn(C)c(=O)c(Nc2ccc(C(=O)N3CCOCC3)cc2)n1` yielded an IC50 of 490 nM.

For `CCC(C)(C)c1ccc(C(=O)Nc2cccc(-c3cn(C)c(=O)c(Nc4ccc(C(=O)N5CCOCC5)cc4)n3)c2C)cc1`, the IC50 in data set [2] turned out to be 40 nM; in [1], 80 nM.

On to `Cc1ccc(C(=O)Nc2cccc(-c3cn(C)c(=O)c(Nc4ccc(C(=O)N5CCOCC5)cc4)n3)c2C)cc1`, for which the midpoint of inhibition in data set [3], the IC50, lay at 860 nM.

Turning to `Cc1c(NC(=O)c2cc3c(s2)CCCC3)cccc1-c1cn(C)c(=O)c(Nc2ccc(C(=O)N3CCOCC3)cc2)n1`, half-maximal inhibition in data set [1] (IC50) was put at 230 nM. This molecule yielded a clearance in data set [4] of 6 mL/min/kg. Moreover, in data set [5], the bioavailability was 29%.

Turning to `Cc1c(NC(=O)c2ccc(C3(C)CC3)cc2)cccc1-c1cn(C)c(=O)c(Nc2ccc(C(=O)N3CCOCC3)cc2)n1`, the IC50 in data set [2] turned out to be 30 nM; in data set [1], 580 nM.

On to `Cc1c(NC(=O)c2cc3c(s2)CCCC3)cccc1-c1cn(C)c(=O)c(Nc2ccncn2)n1`, for which, in data set [4], the clearance was 5.4 mL/min/kg. Besides, in [5], the bioavailability was determined as 37%.

For `CCc1ccc(C(=O)Nc2cccc(-c3cn(C)c(=O)c(Nc4ccc(C(=O)N5CCOCC5)cc4)n3)c2C)cc1`, in [3], half-maximal inhibition (IC50) required 225 nM.

Molecule `Cc1c(NC(=O)c2cc3c(s2)CCCC3)cccc1-c1cn(C)c(=O)c(Nc2ccc([C@H]3C(=O)N(C)CCN3C)cc2)n1` yielded a clearance in data set [4] of 11 mL/min/kg. For the same molecule, in data set [5], the bioavailability turned out to be 41%.

Regarding `Cc1c(NC(=O)c2ccc([Si](C)(C)C)cc2)cccc1-c1cn(C)c(=O)c(Nc2ccc(C(=O)N3CCOCC3)cc2)n1`, the figures for the 50% inhibitory concentration (IC50) in [2] and in [1] were 90 nM and 1100 nM, respectively.

As for `Cc1c(NC(=O)c2ncc(C(C)(C)C)cn2)cccc1-c1cn(C)c(=O)c(Nc2ccc(C(=O)N3CCOCC3)cc2)n1`, half-maximal inhibition in data set [2] (IC50) was put at 50 nM.

Turning to `Cc1c(NC(=O)c2cc3c(s2)CCCC3)cccc1-c1cn(C)c(=O)c(Nc2ccc([C@@H]3C(=O)N(C)CCN3C)cc2)n1`, the bioavailability in data set [6] worked out at 32%; in data set [9] it was 16%; in data set [12], 35%; in data set [14], 16%; in [15], 18%; in data set [5], 35%. The clearance amounted to 43 mL/min/kg in data set [7], 33 mL/min/kg in data set [8], 4.4 mL/min/kg in [4] and 14 mL/min/kg in [19]. In addition, the Activity result with Salmonella typhimurium [10], in the data set with Salmonella typhimurium [16], with Salmonella typhimurium [17] and with Salmonella typhimurium [18] was “Non-toxic” throughout. The same molecule yielded a solubility in data set [11] of 7 µg/mL (≈ 11.7 µM). In addition, the Drug metabolism result in the data set with Homo sapiens [13] is given as “metabolite_detected”. This molecule registered an inhibition at 10 µM against hERG (KCNH2) of 27%.

`Cc1c(NC(=O)c2ccccc2)cccc1-c1cn(C)c(=O)c(Nc2ccc(C(=O)N3CCOCC3)cc2)n1`: it took 4600 nM to reach half-maximal inhibition in data set [3] (IC50).

`Cc1c(NC(=O)c2cc3c(s2)CCOC3)cccc1-c1cn(C)c(=O)c(Nc2ccc(C(=O)N3CCOCC3)cc2)n1` registered an IC50 in data set [1] of 1300 nM.

The molecule `Cc1c(NC(=O)c2cc3c(s2)CCCC3)cccc1-c1cn(C)c(=O)c(Nc2ccc3[nH]ccc3c2)n1` yielded an IC50 in [1] of 1100 nM.

`Cc1c(NC(=O)c2cc3c(s2)CCCC3)cccc1-c1cn(C)c(=O)c(Nc2ccc(-c3ncc[nH]3)cc2)n1` came in with an IC50 in data set [1] of 23900 nM.

On to `Cc1c(NC(=O)c2cnc(C(C)(C)C)nc2)cccc1-c1cn(C)c(=O)c(Nc2ccc(C(=O)N3CCOCC3)cc2)n1`, for which the figures for the IC50 in data set [2] and in [1] were 270 nM and 3700 nM, respectively.

In the case of `Cc1c(NC(=O)c2cc3c(s2)CCCC3)cccc1-c1cn(C)c(=O)c(Nc2ccn3ccnc3c2)n1`, in data set [1], the IC50 is 1300 nM.

Molecule `Cc1c(NC(=O)c2cc3c(s2)CCCC3)cccc1-c1cn(C)c(=O)c(Nc2ccc(C3CCN(C)CC3)cc2)n1` returned an IC50 in [1] of 60 nM. In [4], the clearance worked out at 111 mL/min/kg. The molecule also returned a bioavailability in data set [5] of less than 5%.

`Cc1c(NC(=O)c2cc3c(s2)CCCC3)cccc1-c1cn(C)c(=O)c(Nc2ccc(N3CC[C@@H](N(C)C)C3)cc2)n1` returned an IC50 in data set [1] of 800 nM.

In the case of `Cc1c(NC(=O)c2ccc(N(C)C)cc2)cccc1-c1cn(C)c(=O)c(Nc2ccc(C(=O)N3CCOCC3)cc2)n1`, the IC50 stood at 230 nM in [2] and 410 nM in data set [1].

As to `Cc1c(NC(=O)c2ccc(C(C)(C)O)cc2)cccc1-c1cn(C)c(=O)c(Nc2ccc(C(=O)N3CCOCC3)cc2)n1`, the concentration for half-maximal inhibition (IC50) in data set [2] amounted to 150 nM; in data set [1], 2800 nM.

Turning to `Cc1c(NC(=O)c2cnc(C(C)(C)C)cn2)cccc1-c1cn(C)c(=O)c(Nc2ccc(C(=O)N3CCOCC3)cc2)n1`, the figures for the IC50 in data set [2] and in [1] were 70 nM and 890 nM, respectively.

For `Cc1c(NC(=O)c2ccc(C(C)(C)C)nc2)cccc1-c1cn(C)c(=O)c(Nc2ccc(C(=O)N3CCOCC3)cc2)n1`, the IC50 in [2] worked out at 130 nM; in data set [1], 3500 nM.

`Cc1c(NC(=O)c2cc3c(s2)CCCC3)cccc1-c1cn(C)c(=O)c(Nc2cccnc2)n1` came in with an IC50 in data set [1] of 5000 nM. The same molecule showed a clearance in [4] of 9.2 mL/min/kg. In [5], this molecule displayed a bioavailability of 53%.

For `Cc1c(N)cccc1-c1cn(C)c(=O)c(Nc2ccc([C@@H]3C(=O)N(C)CCN3C)cc2)n1`, in the data set with Homo sapiens [20], the Drug metabolism result is reported as “metabolite_detected”.

For `Cc1c(NC(=O)c2ccc(C(C)(C)C)cc2)cccc1-c1cn(C)c(=O)c(Nc2ccc(C(=O)N3CCOCC3)cc2)n1`, the IC50 in data set [1] turned out to be 150 nM.
